Drawing on article PMC9100525, “CsCuAOs and CsAMADH1 Are Required for Putrescine-Derived γ-Aminobutyric Acid Accumulation in Tea” (Foods, 2022), this text covers Km for 2 compounds.

Common to all, as to type: biochemical
In one assay the target is T1, CsAMADH1 (Camellia sinensis, UniProt I7F760).
T1 construct: recombinant GST fusion, pGEX-4T-1, purified; plastid-localized; gene from Tea Plant Information Archive, locus id not given
T1 sequence (I7F760 1-505): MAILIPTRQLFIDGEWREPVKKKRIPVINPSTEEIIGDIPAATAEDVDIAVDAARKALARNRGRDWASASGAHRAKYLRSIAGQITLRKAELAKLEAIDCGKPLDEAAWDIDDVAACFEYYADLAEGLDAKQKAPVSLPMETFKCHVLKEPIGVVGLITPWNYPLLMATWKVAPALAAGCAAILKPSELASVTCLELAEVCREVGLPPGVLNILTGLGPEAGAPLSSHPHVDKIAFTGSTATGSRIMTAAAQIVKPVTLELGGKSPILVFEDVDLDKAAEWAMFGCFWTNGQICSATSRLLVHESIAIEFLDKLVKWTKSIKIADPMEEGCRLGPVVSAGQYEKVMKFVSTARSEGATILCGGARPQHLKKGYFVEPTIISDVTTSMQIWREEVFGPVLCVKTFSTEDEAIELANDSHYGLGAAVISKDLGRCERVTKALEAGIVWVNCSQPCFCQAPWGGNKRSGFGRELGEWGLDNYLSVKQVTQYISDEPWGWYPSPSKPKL
The assay is described as follows: NADH formation at […] nm; Lineweaver-Burk. The note with it: 0.1 M potassium phosphate pH 8.0; 0.001 M NAD+ as co-substrate; unit "Mm" [sic] (substrate range 0.1-100 mM).

Another assay addresses T2, CsCuAO3 (Camellia sinensis, UniProt A0A4S4DQ49).
T2 construct: gene TEA_013658; recombinant GST fusion, pGEX-4T-1, purified; peroxisomal; copper/TPQ enzyme, CuAOs stated as homodimer in general; gene from Tea Plant Information Archive, locus id not given
T2 sequence (A0A4S4DQ49 1-679): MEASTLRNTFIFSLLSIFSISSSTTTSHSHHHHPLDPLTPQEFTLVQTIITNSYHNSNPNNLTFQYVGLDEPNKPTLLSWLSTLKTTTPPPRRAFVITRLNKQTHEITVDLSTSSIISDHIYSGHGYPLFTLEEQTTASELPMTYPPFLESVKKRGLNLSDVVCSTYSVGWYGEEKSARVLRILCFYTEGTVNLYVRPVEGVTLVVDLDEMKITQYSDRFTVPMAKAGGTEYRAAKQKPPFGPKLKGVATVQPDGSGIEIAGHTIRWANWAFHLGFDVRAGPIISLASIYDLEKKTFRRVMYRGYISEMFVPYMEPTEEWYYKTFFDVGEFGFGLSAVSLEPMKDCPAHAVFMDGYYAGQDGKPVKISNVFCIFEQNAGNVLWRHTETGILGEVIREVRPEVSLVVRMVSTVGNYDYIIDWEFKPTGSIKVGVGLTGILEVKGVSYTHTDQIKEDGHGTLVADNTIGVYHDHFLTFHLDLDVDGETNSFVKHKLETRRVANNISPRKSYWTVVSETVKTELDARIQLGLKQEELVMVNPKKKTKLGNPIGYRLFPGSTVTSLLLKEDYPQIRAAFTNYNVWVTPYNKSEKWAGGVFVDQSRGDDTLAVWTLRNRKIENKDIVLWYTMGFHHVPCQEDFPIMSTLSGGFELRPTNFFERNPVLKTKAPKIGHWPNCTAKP
The assay is described as follows: peroxidase-coupled 4-aminoantipyrine/N,N-dimethylaniline assay at […] nm; Lineweaver-Burk. The note with it: 0.1 M potassium phosphate pH 6.5; O2 co-substrate; unit "Mm" [sic] (substrate range 0.1-100 mM).

The next assay deals with T3, CsCuAO1 (Camellia sinensis, UniProt A0A4S4D8A3).
T3 construct: gene TEA_026770; recombinant GST fusion, pGEX-4T-1, purified; peroxisomal; copper/TPQ enzyme, CuAOs stated as homodimer in general; gene from Tea Plant Information Archive, locus id not given
T3 sequence (A0A4S4D8A3 1-662): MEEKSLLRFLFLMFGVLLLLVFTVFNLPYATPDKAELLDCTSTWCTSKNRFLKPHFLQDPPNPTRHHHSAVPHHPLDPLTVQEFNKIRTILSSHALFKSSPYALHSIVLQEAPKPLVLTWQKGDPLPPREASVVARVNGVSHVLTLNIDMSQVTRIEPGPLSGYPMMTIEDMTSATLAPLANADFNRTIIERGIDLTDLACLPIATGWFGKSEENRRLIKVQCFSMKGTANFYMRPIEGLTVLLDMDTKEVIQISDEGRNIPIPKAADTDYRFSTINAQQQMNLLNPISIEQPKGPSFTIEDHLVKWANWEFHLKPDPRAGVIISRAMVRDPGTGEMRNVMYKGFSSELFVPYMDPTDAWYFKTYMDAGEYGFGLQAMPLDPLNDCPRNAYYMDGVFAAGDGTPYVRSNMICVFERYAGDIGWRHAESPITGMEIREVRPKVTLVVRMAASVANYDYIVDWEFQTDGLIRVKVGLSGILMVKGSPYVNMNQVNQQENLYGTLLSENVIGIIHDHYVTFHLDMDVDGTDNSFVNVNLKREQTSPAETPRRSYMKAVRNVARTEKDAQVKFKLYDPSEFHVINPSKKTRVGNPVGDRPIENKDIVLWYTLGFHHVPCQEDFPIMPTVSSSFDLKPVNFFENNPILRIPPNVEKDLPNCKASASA
The description is as above. The note with it: 0.1 M potassium phosphate pH 6.5; O2 co-substrate; unit "Mm" [sic] (substrate range 0.1-100 mM).

On to `NCCCC=O` [4-ABAL], for which, at CsAMADH1, the Km was determined as 25.7 Mm.
`NCCCCN` [putrescine]: the Km turned out to be 15.8 Mm at CsCuAO3 and 21.9 Mm on CsCuAO1.
